Test results from patent US3998963A, “Tertiary butyl substituted carbamoyl oxime pesticides” (priority 1975, dated 1976).
Values after ≈ are worked out from the molar mass of the structure shown. Like-named read-outs stand apart in the source and are kept apart here.

Assays:
Format in all cases: in vivo
[1] = system: Mexican bean beetle (Epilachna varivestis, Muls.); assay: Mexican Bean Beetle Leaf Spray Test; conditions: 72 h, 3 days, read-out: Insect LD50, Beetle
Experimental: (§1) Suspensions of the test compouns were prepared by dissolving one gram of compound in 50 milliliters of acetone in which had been dissolved 0.1 gram (10 percent of the weight of compound) of an alkylphenoxy polyethoxyethanol surfactant, as an emulsifying or dispersing agent. The resulting solution was mixed into 150 milliliters of water to give roughly 200 milliliters of a suspension containing the compound in finely divided form. The thus-prepared stock suspension contained 0.5 percent by weight of compound. The test concentrations in parts per million by weight employed in the tests described hereinbelow were obtained by appropriate dilutions of the stock suspension with water. The test procedures were as follows:
Mexican Bean Beetle Leaf Spray Test
Fourth instar lavae of the Mexican bean beetle (Epilachna varivestis, Muls.), reared on Tendergreen bean plants at a temperature of 80°±5° F. and 50±5 per cent relative humidity, were the test insects.
The test compounds were formulated by diluting the stock suspension with water to give a suspension containing 500 parts of test compound per million parts of final formulation. Potted Tendergreen bean plants of standard height and age were placed on a revolving turntable and sprayed with 100-110 milliliters of test comound formulation by use of a DeVilbiss spray gun set at 10 psig air pressure. This application, which lasted 25 seconds, was sufficient to wet plants to run-off. As a control, 100-110 milliliters of a water-acetone-emulsifier solution containing no test compound were also sprayed on infested plants. When dry, the paired leaves were separated and each was placed in a 9 centimeter Petri dish lined with moistened filter paper. Five randomly selected larvae were introduced into each dish, and the dishes were closed. The closed dishes were labeled and held at a temperature of 80°±5° F, for 3 days. Although the larvae could easily consume the leaf within 24 to 48 hours, no more food was added. Larvae which were unable to move the length of the body, even upon stimulation, were considered dead.

[2] = system: house flies (Musca domestica, L.); assay: Fly Bait Test; conditions: for LC50: Musca domestica, 24 hours, read-out: Insect LD50, Housefly; for (b) relative efficacy of derivative vs parent compound, Housefly: formula of footnote b is drawing 8
Experimental: as §1
Four to six day old adult house flies (Musca domestica, L.), reared according to the specifications of the Chemical Specialities Manufacturing Association (Blue Book, McNair-Dorland Co., N.Y. 1954; pages 243-244, 261) under controlled conditions of 80°±5° F. and 50±5 per cent relative humidity, were the test insects. The flies were immobilized by anesthetizing with carbon dioxide and twenty five immobilized individuals, males and females, were transferred to a cage consisting of a standard food strainer about five inches in diameter which was inverted over a wrapping-paper covered surface. The test compounds were formulated by diluting the stock suspension with a 10 per cent (by weight) sugar solution to give a suspension containing 500 parts of test compound per million parts of final formulation, by weight. Ten milliliters of the test formulation were added to a souffle cup containing a 1-inch square of an absorbent cotton pad. This bait cup was introduced and centered on the blotting paper under the food strainer prior to admitting the anesthetized flies. The caged flies were allowed to feed on the bait for 24 hours, at a temperature of 80°±5° F. and the relative humidity of 50±5 per cent.
(§2) In Table 1 are presented insect and rat toxicity data (bait tests) on a comparative basis of the compounds described above. […] Rat toxicity is also more meaningfully compared on the basis of molar weight LD50 values. The relative efficacy of the parent compounds as compared to the previously known derivatives and as compared to the new compounds of this invention is also shown in Table 1. The ratio of efficacy as contact poisons (immersion/bait) of the compounds tested against Armyworm and House Fly is presented in Table 2 along with the results of the phytotoxicity tests of the compounds on bean, corn, tomato and cotton.

[3] = system: houseflies (Musca domestica, L.); assay: Fly Immersion Test; conditions: for LC50: Musca domestica, immersion (contact), 24 hours, read-out: Imm LD50, Housefly; for contact vs stomach poison, house fly (in words): immersion vs bait; for (Imm/Bait), Housefly: ratio immersion/bait LD50
Experimental: as §1
The test organisms used were 4 to 6 day old adult houseflies (Musca domestica, L.) reared under controlled conditions of 80° + 5° F. and 50 + 5 percent relative humidity. The adult flies were immobilized by anesthetizing with CO2. Twenty-five immobilized individuals (males and females) were then used for the test of each test compound.
Twenty-five randomly selected adult flies were thoroughly wetted in a formulated mixture of the test chemical (50 ml) by pouring the insects and formulation from one beaker to another six times. Excess liquid was removed by transferring the insects into a standard food strainer (5-inch diameter) which was then blotted with a paper towel. The treated flies were transferred to clean food strainer which was inverted over a paper cup containing a wad of cotton saturated with a 10 percent aqueous sugar solution provided as food for surviving insects. An equivalent amount of a water solution containing acetone and emulsifier in the same concentrations as the insecticidal mixture but without the candidate insecticide was applied to other flies in the same manner. These insects serve as controls for the experiment.
The surviving caged flies were allowed to feed on the sugar water for a period of 24 hours. Room temperature and humidity are 80° + 5° F. and 50 + 5 percent relative humidity, respectively. At the end of the holding period flies which show no sign of movement upon stimulation were considered dead.
as §2

[4] = system: bean; assay: Phytotoxicity Test, bean; conditions: 2500 parts per million; ten days
Experimental: as §1
(§3) Experiments were also conducted to determine the phytotoxicity of representative compositions with respect to healthy fresh plants. Solutions of the compounds were prepared as described above to provide a concentration of 2500 parts per million of the test compound. The test plants were sprayed in accordance with the procedure described above for the Mite Foliage Spray Test so as to deliver approximately 100 milliliters of test solution to the leaves of each plant tested. The sprayed plants and controls were set aside for approximately one hour to allow the foliage to dry and were then placed in the greenhouse. After ten days the plants were visually inspected to determine the extent of foliage injury. A rating of 1 indicates no perceptible injury; 5 indicates the plant was dead and ratings of 2, 3 and 4 indicate intermediate degrees of injury based upon the number and extent to which leaves were injured.

[5] = system: cotton; assay: Phytotoxicity Test, cotton; conditions: for Phytotoxicity, Cotton: 2500 parts per million, ten days
Experimental: as §1, §3

[6] = Mammalian Toxicity (peroral, rat); conditions: rat, in vivo, po, peroral
Experimental: (§4) These compositions were also evaluated to determine their peroral toxicity to mammals by conventional methods. The animal selected for this experiment was the rat. The test results obtained are expressed in terms of the number of milligrams of composition per kilogram of weight of the animal required to achieve a mortality rate of 50 percent (LD50).
as §2

[7] = system: bean, corn, tomato or cotton; assay: Phytotoxicity Test, crop plants overall; conditions: text statement
Experimental: (§5) Each of the new compounds were evaluated in comparison with known similar prior art compounds to determine their comparative pesticidal activity against mites and certain insects, including an aphid, caterpillar, a beetle and a fly. The new compounds were also tested for phytotoxicity on important economic crops including bean, corn, tomato and cotton. The new compounds were further evaluated for mammalian toxicity.
as §1, §3

[8] = system: rat; assay: Mammalian Toxicity (peroral, rat); conditions: for (b) relative value of derivative vs parent compound, Rat LD50: peroral, formula of footnote b is drawing 8; for mammalian toxicity (in words): text statement
Experimental: as §4, §2

[9] = system: insects; assay: Insect toxicity, overall; conditions: text statement
Experimental: as §5, §1, §2

[10] = Table II, read-out: Rat Tox. LD50
[11] = molar weight LD50, Table I, read-out: Rat LD50/mole wt. [a]
[12] = listed as O-[ N-methyl-N-[4-(t-butylphenyl) sulfenyl] carbamoyl] S-isopropyl thiolacetohyd

SMILES | LC50 [1] [µg/mL] | LC50 [2] [µg/mL] | LC50 [3] [µg/mL] | (Imm/Bait), Housefly [3] | Phytotoxicity, Bean [4] | Phytotoxicity, Cotton [5] | LD50 ([6]; Table I, read-out: Rat LD50) [mg/kg] | LD50 [6, 10] [mg/kg] | phytotoxicity (in words) [7] | (b) relative value of derivative vs parent compound, Rat LD50 [8] | LD50 [6, 11] [µmol/kg] | (b) relative efficacy of derivative vs parent compound, Housefly [2] | further results
CNC(=O)ON=C(C)SC [Compound 1, O-(methylcarbamoyl) S-methyl acetothiolhydroximate] | 70 (≈ 432 µM) | 4 (≈ 24.7 µM) | 32 (≈ 197 µM) | 8 | BuCl 2 | *Bu 3 | 48.5 | 48.5 | phytotoxic to one or more of the crop plants | – | – | – | contact vs stomach poison, house fly (in words) [3]: significantly more toxic as stomach poisons than as contact poisons; phytotoxicity to cotton (in words) ([5]; text statement): so great as to significantly curtail the use of this otherwise highly desirable pesticide on cotton; LD50 ([6]; read-out: rat LD50 (molar)): 330 µmol/kg
CSC(C)=NOC(=O)N(C)Sc1ccc(C)cc1 [Compound 6] | 15 (≈ 52.7 µM) | 2 (≈ 7.03 µM) | 14 (≈ 49.2 µM) | 7 | – | Bu 2 | 56.6 | 56.6 | – | 1.5 | – | – | LD50 ([6]; read-out: rat LD50 (molar)): 200 µmol/kg; more toxic to mammals than the parent compound ([8]; molar LD50 comparison, vs compound 1): at least 50%
CSC(C)=NOC(=O)N(C)Sc1ccc(Cl)cc1 [Compound 4] | 70 (≈ 230 µM) | 8 (≈ 26.2 µM) | 24 (≈ 78.7 µM) | 3 | Trif. 3 | *Bu 3 | 65 | 65 | – | 1.43 | 210 | – | –
CCSC(C)=NOC(=O)NC [Compound 3] | 38 (≈ 216 µM) | 3 (≈ 17 µM) | – | – | 2 | 2 | – | 17.7 | – | – | – | – | –
CC(=NOC(=O)N(C)Sc1ccc(C)cc1)SC(C)C [Compound 7] | 15 (≈ 48 µM) | 50 (≈ 160 µM) | 25 (≈ 80 µM) | 0.5 | – | – | 18.7 | 16.2 | – | 0.67 | 60 | 0.38 | –
CC(=NOC(=O)N(C)Sc1ccc(Cl)cc1)SC(C)C [Compound 5] | 50 (≈ 150 µM) | 50 (≈ 150 µM) | 25 (≈ 75.1 µM) | 0.5 | Trif. 3 | Bu 2 | 16.2 | 16.2 | – | 0.83 | 48 | 0.4 | –
CNC(=O)ON=C(C)SC(C)C [Compound 2] | 30 (≈ 158 µM) | 11 (≈ 57.8 µM) | 66 (≈ 347 µM) | 6 | Bu 2 | Bu 2 | 7.7 | 7.7 | phytotoxic to one or more of the crop plants | – | 40 | – | contact vs stomach poison, house fly (in words) [3]: significantly more toxic as stomach poisons than as contact poisons
CC(=NOC(=O)N(C)Sc1ccc(C(C)(C)C)cc1)SC(C)C [Compound 9, O-[N-Methyl-N-[4-(t-Butylphenyl)sulfenyl]carbamoyl] S-Isopropyl Thiolacetohydroximate] | 30 (≈ 84.6 µM) | 50 (≈ 141 µM) | 10 (≈ 28.2 µM) | 0.2 | – | – | 71.3 | 71.3 | extremely low phytotoxicity | 0.2 | 200 | 0.43 | mammalian toxicity (in words) [8]: substantial reduction in mammalian toxicity; mammalian toxicity (in words) [8, 12]: very low level of mammalian toxicity; contact / stomach poison properties for insects (in words) [9]: dramatically superior contact poison characteristics; insect toxicity / pesticidal activity (in words) [9]: dramatic improvement in activity against all insect species, again with the exception of house fly; contact / stomach poison properties for insects (in words) [9, 12]: outstanding stomach poison against insects and also appears to be the most powerful contact poison for insects among all of the compositions tested
